Data on three compounds can be found in article PMC7806522, “Olfactory marker protein interacts with adenosine nucleotide derivatives” (Biochemistry and Biophysics Reports, 2021).

Common to all, as to format: biochemical
Assay [1] deals with T1, Olfactory marker protein (OMP) (Mus musculus, UniProt Q64288).
T1 construct: Rluc-OMP fusion (Rluc upstream of mouse OMP, NM_011010), from HEK293T lysate
T1 sequence (Q64288 2-163): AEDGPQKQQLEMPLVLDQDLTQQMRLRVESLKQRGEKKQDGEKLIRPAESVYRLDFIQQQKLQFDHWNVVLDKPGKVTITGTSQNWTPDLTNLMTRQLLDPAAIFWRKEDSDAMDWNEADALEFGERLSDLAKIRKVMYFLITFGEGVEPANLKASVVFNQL
Put plainly: BRET competition against […] 8NBD-cAMP (U-shaped, peak at […]).

For assay [2], the target named is T1, Olfactory marker protein (OMP). Put plainly: BRET competition against […] 8NBD-cAMP (U-shaped). A general note: In BRET a luciferase serves as donor, and the signal depends on an acceptor being close.
The target is the same in assay [3]. Briefly: direct BRET binding, Rluc-OMP to fluorescent TNP-ATP, Rluc-alone background subtracted.

As for `Nc1ncnc2c1ncn2[C@@H]1O[C@H](COP(=O)(O)OP(=O)(O)O)[C@@H](O)[C@H]1O` [ADP], the “concentration at peak BRET signal” value in assay [1] was 1 to 3 µM.

Usually EC50 stands for the concentration at which the effect is half-maximal. Read a high EC50 as lower potency in that assay. Compound `Nc1ncnc2c1ncn2[C@@H]1O[C@H](COP(=O)(O)OP(=O)(O)OP(=O)(O)O)[C@@H](O)[C@H]1O` [ATP] yielded an EC50 in assay [2] of 1 ± 0.15 µM.

For `Nc1ncnc2c1ncn2[C@@H]1O[C@H](COP(=O)(O)OP(=O)(O)OP(=O)(O)O)[C@H]2OC3(O[C@H]21)C([N+](=O)[O-])=CC(=[N+]([O-])[O-])C=C3[N+](=O)[O-]` (stereo partly drawn) [TNP-ATP], the EC50 in assay [3] is 13 ± 1.5 µM.
